This is an account of results in patent publication US8895585B2, “Nicotinamide derivative or salt thereof” (FUJIFILM Corporation, priority 2010, dated 2014).

In general, IC50 refers to the midpoint of a concentration-inhibition curve.

The assay addresses T1, glutathione S-transferase (GST)-fused full-length human Syk protein (Homo sapiens, UniProt P43405).
T1 construct: (GST)-fused full-length human Syk protein; GST (glutathione S-transferase); purchased Carna Biosciences
Description: Syk enzyme assay. It counts as biochemical. The conditions noted are these: Syk enzyme assay, Test Example 1; read-out: IC50 of Syk-inhibitory activity. The gist of the method: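 Baculovirus-expressed enzyme (1.2 ng) was preincubated with compound in HEPES pH 7.0/MgCl2/DTT buffer, 2 min shaking then 13 min at room temperature. Biotin-EDPDYEWPSA-NH2 (0.4 μM final) and ATP (27 μM final) were added for 40 min at room temperature. EDTA stop, streptavidin-XL/PT66-K TR-FRET at 615/665 nm gave IC50.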
On to `COc1cc(Nc2nc(N[C@H](c3ccccc3)[C@@H](N)c3ccccc3)c(F)cc2C(N)=O)ccn1` [Example 006-139], for which the IC50 fell in the range of 10 to 50 nM. The figure for `CC[C@H](N)C(C)Nc1nc(Nc2ccc3ncccc3c2)c(C(N)=O)cc1F` (some centres unmarked) [Example 006-149] is 10 to 50 nM; for `CCC(Nc1nc(Nc2ccc3ncccc3c2)c(C(N)=O)cc1F)[C@@H](N)CC` (stereo partly drawn) [Example 006-150, 6-(((4S)-4-aminohexan-3-yl)amino)-5-fluoro-2-(quinolin-6-ylamino)nicotinamide] it is 10 to 50 nM. With `CC[C@H](N)C(CC(C)C)Nc1nc(Nc2ccc3ncccc3c2)c(C(N)=O)cc1F` (stereo partly drawn) [Example 006-151, 6-(((5S)-5-amino-2-methylheptan-4-yl)amino)-5-fluoro-2-(quinolin-6-ylamino)nicotinamide], the IC50 lay within 10 to 50 nM. In the case of `CC(C)C(Nc1nc(Nc2ccc3ncccc3c2)c(C(N)=O)cc1F)[C@H](C)N` (stereo partly drawn) [Example 006-158, 6-(((2S)-2-amino-4-methylpentan-3-yl)amino)-5-fluoro-2-(quinolin-6-ylamino)nicotinamide], the IC50 is 10 to 50 nM. In the case of `CC(C)(C)[C@H](CN)Nc1nc(Nc2ccc3ncccc3c2)c(C(N)=O)cc1F` [Example 006-162, (R)-6-((1-amino-3,3-dimethylbutan-2-yl)amino)-5-fluoro-2-(quinolin-6-ylamino)nicotinamide], the IC50 fell in the range of 50 to 100 nM. As to `NCC1(Nc2nc(Nc3ccc4ncccc4c3)c(C(N)=O)cc2F)CC1` [Example 006-171, 6-((1-(aminomethyl)cyclopropyl)amino)-5-fluoro-2-((quinolin-6-yl)amino)nicotinamide], the IC50 is less than 10 nM. Consider `NC(=O)c1cc(F)c(NC2CCCC2N)nc1Nc1ccc2ncccc2c1` (stereo not drawn) [Example 006-175, 6-((cis-2-aminocyclopentyl)amino)-5-fluoro-2-(quinolin-6-yl)amino)nicotinamide], for which the IC50 is 10 to 50 nM. Consider `CC[C@H](Nc1nc(Nc2ccc3ncccc3c2)c(C(N)=O)cc1F)[C@H](C)N` [Example 006-179, 6-(((2S,3S)-2-aminopentan-3-yl)amino)-5-fluoro-2-((quinolin-6-yl)amino)nicotinamide], for which the IC50 was 50 to 100 nM. As to `C[C@H](N)[C@H](C)Nc1nc(Nc2ccc3ncccc3c2)c(C(N)=O)cc1F` [Example 006-181, 6-(((2S,3S)-3-aminobutan-2-yl)amino)-5-fluoro-2-((quinolin-6-yl)amino)nicotinamide], the IC50 lay in the range of 100 to 1000 nM. Take `CC(C)C[C@H](CN)Nc1nc(Nc2ccc(N3CCOCC3)nc2)c(C(N)=O)cc1F` [Example 006-191, (R)-6-((1-amino-4-methylpentan-2-yl)amino)-5-fluoro-2-((6-morpholinopyridin-3-yl)amino)nicotinamide]: the IC50 is 10 to 50 nM.

Consider `C[C@H](N)[C@H](C)Nc1nc(Nc2ccc3ncccc3c2)c(C(N)=O)cc1F` [Example 006-202, 6-(((2S,3S)-3-aminobutan-2-yl)amino)-5-fluoro-2-((quinolin-6-yl)amino)nicotinamide], for which the IC50 lay within 50 to 100 nM. With `CC(C)C[C@@H](CN)Nc1nc(Nc2ccc3ncccc3c2)c(C(N)=O)cc1F` [Example 006-203, (S)-6-((1-amino-4-methylpentan-2-yl)amino)-5-fluoro-2-((quinolin-6-yl)amino)nicotinamide], the IC50 lay in the range of 100 to 1000 nM. For the compound `CCCC[C@@H](Nc1nc(Nc2cnc3cc(OC)ccc3c2)c(C(N)=O)cc1F)[C@H](C)N` [Example 006-205, 6-(((2S,3R)-2-aminoheptan-3-yl)amino)-5-fluoro-2-((7-methoxyquinolin-3-yl)amino)nicotinamide], the IC50 was less than 10 nM. Under `C[C@H](Nc1nc(Nc2ccc3ncccc3c2)c(C(N)=O)cc1F)[C@@H](C)N` [Example 006-225, 6-(((2S,3R)-3-aminobutan-2-yl)amino)-5-fluoro-2-((quinolin-6-yl)amino)nicotinamide] stands 10 to 50 nM; under `CC(C)C[C@H](CN)Nc1nc(Nc2cccc3cccnc23)c(C(N)=O)cc1F` [Example 006-230, (R)-6-((1-amino-4-methylpentan-2-yl)amino)-5-fluoro-2-((quinolin-8-yl)amino)nicotinamide], 10 to 50 nM. Turning to `CC(C)C[C@H](CN)Nc1nc(Nc2cncc3ccccc23)c(C(N)=O)cc1F` [Example 006-231], the IC50 is less than 10 nM. With `CC(C)C[C@H](CN)Nc1nc(Nc2cncc(-c3ccccc3)c2)c(C(N)=O)cc1F` [Example 006-235, (R)-6-((1-amino-4-methylpentan-2-yl)amino)-5-fluoro-2-((5-phenylpyridin-3-yl)amino)nicotinamide], the IC50 lay in the range of 10 to 50 nM. The figure for `CCC[C@@H](Nc1nc(Nc2cccc3cccnc23)c(C(N)=O)cc1F)[C@H](C)N` [Example 006-243, 6-(((2S,3R)-2-aminohexan-3-yl)amino)-5-fluoro-2-((quinolin-8-yl)amino)nicotinamide] is 10 to 50 nM; for `CCC[C@@H](Nc1nc(Nc2ccc(N3CCOCC3)nc2)c(C(N)=O)cc1F)[C@H](C)N` [Example 006-246, 6-(((2S,3R)-2-aminohexan-3-yl)amino)-5-fluoro-2-((6-mopholinopyridin-3-yl)amino)nicotinamide] it is 10 to 50 nM. As for `CC[C@@H](Nc1nc(Nc2ccnc(-n3nccn3)c2)c(C(N)=O)cc1F)[C@H](C)N` [Example 006-254, 2-((2-(2H-1,2,3-triazol-2-yl)pyridin-4-yl)amino)-6-(((2S,3R)-2-aminopentan-3-yl)amino)-5-fluoronicotinamide], the IC50 lay within 10 to 50 nM. As to `CC[C@@H](Nc1nc(Nc2cnc(OC)c(-n3nccn3)c2)c(C(N)=O)cc1F)[C@H](C)N` [Example 006-273, 6-(((2S,3R)-2-aminopentan-3-yl)amino)-5-fluoro-2-((6-methoxy-5-(2H-1,2,3-triazol-2-yl)pyridin-3-yl)amino)nicotinamide], the IC50 lay in the range of 100 to 1000 nM. As for `CC[C@@H](Nc1nc(Nc2cncc(-c3cc(OC)ccc3F)c2)c(C(N)=O)cc1F)[C@H](C)N` [Example 006-280, 6-(((2S,3R)-2-aminopentan-3-yl)amino)-5-fluoro-2-((5-(2-fluoro-5-methoxyphenyl)pyridin-3-yl)amino)nicotinamide], the IC50 was less than 10 nM. As to `NC[C@@H](CC1CC1)Nc1nc(Nc2cncc(-c3ccccc3)c2)c(C(N)=O)cc1F` [Example 006-283, (R)-6-((1-amino-3-cyclopropylpropan-2-yl)amino)-5-fluoro-2-((5-phenylpyridin-3-yl)amino)nicotinamide], the IC50 lay in the range of 10 to 50 nM. `CCCC[C@H](CN)Nc1nc(Nc2ccc3c(cnn3C)c2)c(C(N)=O)cc1F` [Example 006-292, (R)-6-((1-aminohexan-2-yl)amino)-5-fluoro-2-((1-methyl-1H-indazol-5-yl)amino)nicotinamide]: the IC50 was less than 10 nM. The figure for `NCC(CCC(F)(F)F)Nc1nc(Nc2cncc(-c3ccccc3)c2)c(C(N)=O)cc1F` (centres unmarked) [Example 006-305, 6-((1-amino-5,5,5-trifluoropentan-2-yl)amino)-5-fluoro-2-((5-phenylpyridin-3-yl)amino)nicotinamide] is 10 to 50 nM; for `COc1ccc(-c2cncc(Nc3nc(N[C@@H](CN)CC(C)C)c(F)cc3C(N)=O)c2)c(F)c1` [Example 006-319, (R)-6-((1-amino-4-methylpentan-2-yl)amino)-5-fluoro-2-((5-(2-fluoro-4-methoxyphenyl)pyridin-3-yl)amino)nicotinamide] it is 10 to 50 nM. Consider `COc1ccc(F)c(-c2cncc(Nc3nc(N[C@@H](CN)CC(C)C)c(F)cc3C(N)=O)c2)c1` [Example 006-320, (R)-6-((1-amino-4-methylpentan-2-yl)amino)-5-fluoro-2-((5-(2-fluoro-5-methoxyphenyl)pyridin-3-yl)amino)nicotinamide], for which the IC50 was in the range of 50 to 100 nM.

As for `COc1cccc(-c2cc(Nc3nc(N[C@@H](CN)CC(C)C)c(F)cc3C(N)=O)ccn2)c1` [Example 006-325, (R)-6-((1-amino-4-methylpentan-2-yl)amino)-5-fluoro-2-((2-(3-methoxyphenyl)pyridin-4-yl)amino)nicotinamide], the IC50 was less than 10 nM. Regarding `COc1ccc(-c2cc(Nc3nc(N[C@@H](CN)CC(C)C)c(F)cc3C(N)=O)ccn2)cc1` [Example 006-326, (R)-6-((1-amino-4-methylpentan-2-yl)amino)-5-fluoro-2-((2-(4-methoxyphenyl)pyridin-4-yl)amino)nicotinamide], the IC50 was less than 10 nM. On to `COc1cccc(-c2cc(Nc3nc(N[C@@H](CN)CC(C)C)c(F)cc3C(N)=O)ccn2)c1F` [Example 006-327, (R)-6-((1-amino-4-methylpentan-2-yl)amino)-5-fluoro-2-((2-(2-fluoro-3-methoxyphenyl)pyridin-4-yl)amino)nicotinamide], for which the IC50 is less than 10 nM. The figure for `COc1ccc(-c2cc(Nc3nc(N[C@@H](CN)CC(C)C)c(F)cc3C(N)=O)ccn2)c(F)c1` [Example 006-328, (R)-6-((1-amino-4-methylpentan-2-yl)amino)-5-fluoro-2-((2-(2-fluoro-4-methoxyphenyl)pyridin-4-yl)amino)nicotinamide] is less than 10 nM.

For the compound `NC[C@H](Nc1nc(Nc2cncc(-c3ccccc3)c2)c(C(N)=O)cc1F)C1CC1` [Example 006-337, (R)-6-((2-amino-1-cyclopropylethyl)amino)-5-fluoro-2-((5-phenylpyridin-3-yl)amino)nicotinamide], the half-maximal inhibitory concentration (IC50) lay in the range of 10 to 50 nM. `CCCC[C@H](CN)Nc1nc(Nc2cccc3c2cnn3C)c(C(N)=O)cc1F` [Example 006-339, (R)-6-((1-aminohexan-2-yl)amino)-5-fluoro-2-((1-methyl-1H-indazol-4-yl)amino)nicotinamide]: the IC50 was 10 to 50 nM. With `CCCC[C@H](CN)Nc1nc(Nc2cncc(C3CC3)c2)c(C(N)=O)cc1F` [Example 006-340, (R)-6-((1-aminohexan-2-yl)amino)-2-((5-cyclopropylpyridin-3-yl)amino)-5-fluoronicotinamide], the IC50 is less than 10 nM.
